Consider one molecule from US20050009154A1, “Biocatalytic preparation of 1-cyano-cyclohexaneacetic acid” (Pfizer Inc, priority 2003, published 2005).

SMILES strings stand for the structures. Converted amounts (≈) assume the structure as drawn.

The series in a line: aqueous solubility of the starting material. To be noted: aqueous buffer; 25° C., 20 mM phosphate buffer, pH 7; read-out: water solubility (aqueous solubility limit). The class given is physicochemical. Here is the method:
The enzyme-catalyzed conversion of II to I can be carried out by contacting II with the enzyme catalyst in an aqueous reaction mixture. Compound II, the starting material, which is only moderately water soluble, (ca. 10 mM, 25° C., 20 mM phosphate buffer, pH 7), can be added to an aqueous reaction containing the enzyme catalyst at levels exceeding its aqueous solubility limit. Thus reaction mixtures initially consist of two phases, an aqueous phase containing dissolved II and the enzyme catalyst, and a solid phase containing undissolved II. At complete conversion of II, a single phase containing compound I and the enzyme catalyst remains. The enzyme catalyzed conversion of II to I can be carried out with levels of compound II from about 0.1 g/L to 148 g/L, with a preferred range of about 0.1 g/L to 90 g/L. The enzyme catalyst concentrations used in the present invention depend on the specific activity of the enzyme catalyst and is chosen to obtain the desired rate of reaction.

By solubility is commonly meant the dissolved amount per volume that the medium holds.

In the case of `N#CCC1(C#N)CCCCC1` [Compound II, 1-cyanocyclohexaneacetonitrile], the solubility was roughly 10 mM (≈ 1480 µg/mL).
